Experimental data: patent US20170333591A9, “ABSORBENT ARTICLE COMPRISING MALODOR REDUCTION COMPOSITIONS” (The Procter & Gamble Company, priority 2014, published 2017)

Assay: Log of liquid dish neat product liquid-air partition coefficient
Format: physicochemical
Conditions: for Log of liquid dish neat product liquid-air partition coefficient (Comment Code K/L): code letter within the Comment Code cell

| Structure (SMILES) | Comment Code: Log of liquid dish neat product liquid-air partition coefficient | Log of liquid dish neat product liquid-air partition coefficient (Comment Code K/L) |
| --- | --- | --- |
| CCC(=O)OC1CC2C3C=CCC3C1C2(C)C (stereo not drawn) [Material 343] | K (Log of liquid dish neat product liquid-air partition coefficient greater than or equal to 7) | K (Log of liquid dish neat product liquid-air partition coefficient greater than or equal to 7) |
| CCOC(=O)C12CCCC1C1CCC2C1 (stereo not drawn) [Material 344] |  | K (Log of liquid dish neat product liquid-air partition coefficient greater than or equal to 7) |
| CCOC(=O)C1CCC(C(=O)OCC)CC1 (stereo not drawn) [Material 347] |  | K (Log of liquid dish neat product liquid-air partition coefficient greater than or equal to 7) |
| CC(C)CC1CC(C)(O)CCO1 (stereo not drawn) [Material 350] |  | K (Log of liquid dish neat product liquid-air partition coefficient greater than or equal to 7) |
| C=CCCCCCCCCC#N [Material 352] |  | K (Log of liquid dish neat product liquid-air partition coefficient greater than or equal to 7) |
| C/C=C1/CC2CC1C1CCC(=O)OC21 (stereo not drawn) [Material 353] | K (Log of liquid dish neat product liquid-air partition coefficient greater than or equal to 7) | K (Log of liquid dish neat product liquid-air partition coefficient greater than or equal to 7) |
| CCc1ccccc1CC(C)(C)C=O [Material 354] | K (Log of liquid dish neat product liquid-air partition coefficient greater than or equal to 7) |  |
| CCOC(=O)OC1CCCCC1C(C)(C)C (stereo not drawn) [Material 355] | K (Log of liquid dish neat product liquid-air partition coefficient greater than or equal to 7) |  |
| CCc1ccccc1CC(C)(C)C=O [Material 356] |  | K (Log of liquid dish neat product liquid-air partition coefficient greater than or equal to 7) |
| CC(O)C(C)/C=C1\C[C@H]2C[C@@H]1[C@@H]1C=CC[C@H]21 (stereo partly drawn) [Material 359] | K (Log of liquid dish neat product liquid-air partition coefficient greater than or equal to 7) | K (Log of liquid dish neat product liquid-air partition coefficient greater than or equal to 7) |
| CC(=O)OC1CC2C3C=CCC3C1C2(C)C (stereo not drawn) [Material 360] | K (Log of liquid dish neat product liquid-air partition coefficient greater than or equal to 7) | K (Log of liquid dish neat product liquid-air partition coefficient greater than or equal to 7) |
| CCc1ccc(CC(C)(C)C#N)cc1 [Material 361] |  | K (Log of liquid dish neat product liquid-air partition coefficient greater than or equal to 7) |
| CCOC(C)OC1CCCCCCCCCCC1 (stereo not drawn) [Material 363] |  | K (Log of liquid dish neat product liquid-air partition coefficient greater than or equal to 7) |
| CC(=O)OCC=C(C)CCC=C(C)CCC=C(C)C [Material 368] |  | K (Log of liquid dish neat product liquid-air partition coefficient greater than or equal to 7) |
| CC(C)=CCCC(C)=CCCC(C)=CCO [Material 369] |  | K (Log of liquid dish neat product liquid-air partition coefficient greater than or equal to 7) |
| O=C1CCCCCCCCCCCCCCO1 [Material 370] |  | K (Log of liquid dish neat product liquid-air partition coefficient greater than or equal to 7) |
| O=C1CCC=CCCCCCCCCCC1 [Material 371] |  | K (Log of liquid dish neat product liquid-air partition coefficient greater than or equal to 7) |
| O=C1CCC=CCCCCCCCCCC1 [Material 372] |  | K (Log of liquid dish neat product liquid-air partition coefficient greater than or equal to 7) |
| C=CCc1ccc(OC(C)=O)c(OC)c1 [Material 374] |  | K (Log of liquid dish neat product liquid-air partition coefficient greater than or equal to 7) |
| C=CCc1ccc(O)c(OC)c1 [Material 375] |  | K (Log of liquid dish neat product liquid-air partition coefficient greater than or equal to 7) |
| CCOC(=O)C1OC1(C)c1ccccc1 (stereo not drawn) [Material 377] |  | K (Log of liquid dish neat product liquid-air partition coefficient greater than or equal to 7) |
| C=CCCCCCCCCC(=O)OCC [Material 381] |  | K (Log of liquid dish neat product liquid-air partition coefficient greater than or equal to 7) |
| CCCCCCCCCCCCCC(=O)OCC [Material 388] |  | K (Log of liquid dish neat product liquid-air partition coefficient greater than or equal to 7) |
| C=CC(O)(CC)CCC=C(C)C (stereo not drawn) [Material 390] |  | K (Log of liquid dish neat product liquid-air partition coefficient greater than or equal to 7) |

| Structure (SMILES) | Comment Code: Log of liquid dish neat product liquid-air partition coefficient | Log of liquid dish neat product liquid-air partition coefficient (Comment Code K/L) |
| --- | --- | --- |
| CCCCCCCCCCCC(=O)OCC [Material 391] |  | K (Log of liquid dish neat product liquid-air partition coefficient greater than or equal to 7) |
| CCCCCCCCCC(=O)OCC [Material 397] |  | K (Log of liquid dish neat product liquid-air partition coefficient greater than or equal to 7) |
| CCOC(=O)C=Cc1ccccc1 [Material 400] | K (Log of liquid dish neat product liquid-air partition coefficient greater than or equal to 7) |  |
| CCC1=CCCC(C)(C)C12C=CC(C)O2 (stereo not drawn) [Material 413] |  | K (Log of liquid dish neat product liquid-air partition coefficient greater than or equal to 7) |
| C=CC1(C)CCC(C(C)(C)O)CC1C(=C)C (stereo not drawn) [Material 414] |  | K (Log of liquid dish neat product liquid-air partition coefficient greater than or equal to 7) |
| CCOC(C)OCCc1ccccc1 (stereo not drawn) [Material 415] |  | K (Log of liquid dish neat product liquid-air partition coefficient greater than or equal to 7) |
| CC1=CCC(C=CC(C)C(C)O)C1(C)C (stereo not drawn) [Material 416] |  | K (Log of liquid dish neat product liquid-air partition coefficient greater than or equal to 7) |
| O=CCCC=C1CC2CC1C1CCCC21 (stereo not drawn) [Material 418] |  | K (Log of liquid dish neat product liquid-air partition coefficient greater than or equal to 7) |
| CC1CCOC(c2ccccc2)C1 (stereo not drawn) [Material 420] | K (Log of liquid dish neat product liquid-air partition coefficient greater than or equal to 7) |  |
| CCCCCCCCCCCC(OC)OC [Material 421] |  | K (Log of liquid dish neat product liquid-air partition coefficient greater than or equal to 7) |
| c1ccc(Oc2ccccc2)cc1 [Material 428] |  | K (Log of liquid dish neat product liquid-air partition coefficient greater than or equal to 7) |
| c1ccc(Cc2ccccc2)cc1 [Material 429] |  | K (Log of liquid dish neat product liquid-air partition coefficient greater than or equal to 7) |
| CCCC(=O)OC(C)(C)Cc1ccccc1 [Material 432] |  | K (Log of liquid dish neat product liquid-air partition coefficient greater than or equal to 7) |
| C=CC(C)CCCC(C)(C)O (stereo not drawn) [Material 437] | K (Log of liquid dish neat product liquid-air partition coefficient greater than or equal to 7) |  |
| CCCc1ccc(O)c(OC)c1 [Material 440] | K (Log of liquid dish neat product liquid-air partition coefficient greater than or equal to 7) |  |
| C=C(C)C1CCC(C)C(OC(C)=O)C1 (stereo not drawn) [Material 444] |  | K (Log of liquid dish neat product liquid-air partition coefficient greater than or equal to 7) |
| CC(=O)CCC1C(C)=CCCC1(C)C (stereo not drawn) [Material 448] | K (Log of liquid dish neat product liquid-air partition coefficient greater than or equal to 7) |  |
| CCCCCCC1C(=O)CCC1C(=O)OC (stereo not drawn) [Material 450] |  | K (Log of liquid dish neat product liquid-air partition coefficient greater than or equal to 7) |
| c1ccc(COCc2ccccc2)cc1 [Material 454] | K (Log of liquid dish neat product liquid-air partition coefficient greater than or equal to 7) |  |
| c1ccc(CCc2ccccc2)cc1 [Material 457] |  | K (Log of liquid dish neat product liquid-air partition coefficient greater than or equal to 7) |
| C=CC1(C)CCC(C(C)C)=CC1C(=C)C (stereo not drawn) [Material 461] |  | K (Log of liquid dish neat product liquid-air partition coefficient greater than or equal to 7) |
| CCCCCCCC1CCCC(=O)O1 (stereo not drawn) [Material 463] |  | K (Log of liquid dish neat product liquid-air partition coefficient greater than or equal to 7) |
| CC=CC(=O)C1C(C)C=CCC1(C)C (stereo not drawn) [Material 466] |  | K (Log of liquid dish neat product liquid-air partition coefficient greater than or equal to 7) |
